From publication PMC6382835, “A critical evaluation of TRPA1-mediated locomotor behavior in zebrafish as a screening tool for novel anti-nociceptive drug discovery” (Scientific Reports, 2019)

What was measured:
mouse TRPA1 (mTRPA1) = target: T1, mouse TRPA1 (mTRPA1) (Mus musculus, UniProt Q8BLA8); assay: FLIPR calcium signaling assay in mTRPA1-transfected HEK293 cells; format: cell-based; conditions: for EC50: read-out: EC50 (potency in µM)
T1 construct: host or cells: HEK293 (ATCC CRL-1573), transient transfection
T1 sequence (Q8BLA8 whole entry): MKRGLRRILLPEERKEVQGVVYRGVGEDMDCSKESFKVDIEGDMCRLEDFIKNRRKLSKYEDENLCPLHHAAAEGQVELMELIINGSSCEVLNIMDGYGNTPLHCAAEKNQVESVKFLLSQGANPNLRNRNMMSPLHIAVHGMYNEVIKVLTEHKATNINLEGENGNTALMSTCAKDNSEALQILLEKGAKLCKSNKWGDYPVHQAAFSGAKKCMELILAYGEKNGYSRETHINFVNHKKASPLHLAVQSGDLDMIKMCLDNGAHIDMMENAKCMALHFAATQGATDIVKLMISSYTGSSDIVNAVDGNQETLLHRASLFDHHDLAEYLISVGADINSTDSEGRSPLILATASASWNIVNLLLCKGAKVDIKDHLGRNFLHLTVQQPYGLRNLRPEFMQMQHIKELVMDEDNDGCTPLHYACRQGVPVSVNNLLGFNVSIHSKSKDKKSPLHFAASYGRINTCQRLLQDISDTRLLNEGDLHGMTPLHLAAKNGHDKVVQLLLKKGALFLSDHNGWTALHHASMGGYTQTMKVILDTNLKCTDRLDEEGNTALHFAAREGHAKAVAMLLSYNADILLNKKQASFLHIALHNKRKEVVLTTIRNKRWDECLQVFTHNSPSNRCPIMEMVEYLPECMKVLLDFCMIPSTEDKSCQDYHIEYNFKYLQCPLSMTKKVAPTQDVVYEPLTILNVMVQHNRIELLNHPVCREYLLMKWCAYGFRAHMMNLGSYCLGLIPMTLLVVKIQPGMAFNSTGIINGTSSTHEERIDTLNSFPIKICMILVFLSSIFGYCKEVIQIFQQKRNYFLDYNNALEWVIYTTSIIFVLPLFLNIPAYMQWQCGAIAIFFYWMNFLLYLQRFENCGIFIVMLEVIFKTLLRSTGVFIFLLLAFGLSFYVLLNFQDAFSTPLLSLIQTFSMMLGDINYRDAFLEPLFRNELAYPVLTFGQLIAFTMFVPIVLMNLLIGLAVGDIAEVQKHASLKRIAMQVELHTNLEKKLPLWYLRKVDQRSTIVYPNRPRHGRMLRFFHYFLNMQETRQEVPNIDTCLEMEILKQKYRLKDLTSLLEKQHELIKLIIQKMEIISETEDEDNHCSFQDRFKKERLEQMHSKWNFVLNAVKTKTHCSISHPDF
Description: HEK293 cells (#CRL-1573, ATCC, VA, USA) were cultured in DMEM media (#11995-065, Sigma-Aldrich, MO, USA) with 10% Fetal Bovine Serum (#F0926-500ML, Thermo Fisher, MA, USA). The cells were maintained in a 37 °C incubator with consistent 5% CO2. They were seeded in a clear 6 well flat bottom cell culture plates (#07-200-83, Corning ®, Thermo Fisher) with 500,000 cells/2 ml/well for transfection, in serum-free Opti-MEM (#31985070, Gibco®, Thermo Fisher). These cells were transfected with pcDNA3.1-mTRPA1 (#MR227099, OriGene, MD, USA), pcDNA3.1-zTRPA1a, or pcDNA3.1-zTRPA1b (a gift from Dr. David Prober) using X-tremeGENE^TM 9 (#6365809001, Sigma-Aldrich). After 24 hours, the transfected cells were dislodged with trypsin, resuspended in Opti-MEM, and seeded 25,000 cells/25 µl/well in 384-well black polystyrene microplates (#82051-296, VWR, PA, USA) for testing calcium signaling the following day. Experiments were carried out with the approval of the Institutional Biohazard Committee (#13-013-16).
Twenty-five µl calcium sensitive Fluorescent Imaging Plate Reader (FLIPR) Calcium 6 assay dye (#R8190, Molecular Devices, CA, USA) was added to each well of a 384-well plate containing HEK293 cells transiently expressing mTRPA1, zTRPA1a, and zTRPA1b, respectively. The cells were incubated for an hour prior to the recording of intracellular calcium levels in a FlexStation3 Multi-Mode Microplate Reader (#R8190, Molecular Devices) as previously described. All compounds were diluted in calcium buffer made with 1x HBSS (#14025-092, Thermo Fisher), 20 mM HEPES (#15630-080, Thermo Fisher), and 2.5 mM Probenecid (#P8761, Sigma-Aldrich). For agonist studies, ASP7663 (#5178, Tocris, Bristol, UK) was diluted in 1% DMSO-containing calcium buffer at desired concentrations and was added during the recording. The TRPA1 antagonists HC-030031 (#2896, Tocris), TCS-5861528 (#3938, Tocris), and A-967079 (#4716, Tocris) were diluted in calcium buffer, and 5 µl of 10x solutions were added 10 minutes prior to the recording. The same amount of DMSO (1%) was added to all control groups to maintain similar DMSO levels with the experimental groups. During the assay, the cells were challenged by a 5x ASP7663 solution or 1% DMSO solution at the 20 seconds time point, and both solutions were diluted in calcium buffer. Relative fluorescence units (RFU) were measured for 120 seconds period by the Flexstation. Area under the curve (AUC) was further evaluated from individual calcium influx data (Supplemental Figs 2 and 4) to plot does-response curve of antagonists. For each specific antagonist concentration we plotted Log(dose ratio-1) against the antagonist concentration in a Schild plot. The dose ratio (A’/A) equals the EC50 of the agonist ([…]) in the presence of a concentration of the antagonist (A’) divided by the EC50 of the agonist in the absence of antagonist (A). The x-intercept of the Schild plot was used to identify the antagonist-receptor affinity (pA2).
All data are presented as means ± standard error of the mean (SEM). For our in vitro statistical analysis, AUC of calcium influx (RFU) was measured to plot dose-response curves, which were further analyzed by nonlinear regression analysis. Mean RFU of the first 10 seconds was used as a baseline of the AUC. EC50 values of the dose-response curves were further used to plot Schild curves, and the curves were analyzed with linear regression analysis. For the mice von Frey test, mechanical thresholds were analyzed with two-way ANOVA followed by a Bonferonni test for multiple comparison analysis. For the zebrafish behavior test, the data from the first five seconds following drug administration were excluded, as zebrafish displacement during that period was highly influenced by liquid dispensing. AUC of all curves were measured and analyzed by one-way ANOVA. The post-hoc analysis was conducted with the Tukey’s or Dunnett’s multiple comparisons unless it stated otherwise. […]

5 dpf zebrafish larvae = assay: Zebrafish locomotor tracking assay; format: in vivo, Zebrafish (Danio rerio); conditions: for swimming (locomotor) behavior: 100 μM agonist, 5 dpf larvae, 300 s tracking
Description: Wild-type zebrafish of the AB line were utilized for all behavioral experiments. Adult and larval zebrafish were maintained on a 14 hr/10 hr light/dark cycle. They were maintained and bred using standard procedure https://zfin.org/zf_info/zfbook/zfbk.html. Larval zebrafish were reared until 5 days post-fertilization (dpf) in E3 media https://zfin.org/zf_info/zfbook/chapt1/1.3.html in an incubator at 28 °C. E3 media was changed daily, and healthy embryos were kept for experiments.
In the behavioral experiments, one 5 dpf zebrafish was placed in 250 μL of fish media per well of a 96-well plate (UNIPLATE Collection and Analysis Microplate, 96-Well 7701-1651). For each experimental condition, a group of 8 larvae (1 column) was used. Larvae were acclimated to the wells for 300 seconds after which an 8-channel pipette was used to simultaneously dispense 250 μL of 2x concentration of the TRPA1 agonist ASP7663 in fish media into each well. Locomotor activity was subsequently tracked and quantified (as distance travelled) for 300 additional seconds utilizing the Zebrabox system from ViewPoint Behavior Technology (Civrieux, France). For TRPA1 antagonist testing, larvae in the 96-well plate were pretreated with 1x concentration of antagonist in 250 μL E3 media for 20 minutes. Then, 250 μL of 2x TRPA1 agonist was added directly to this solution, and the resulting behavior was recorded as described above.
All data are presented as means ± standard error of the mean (SEM). For our in vitro statistical analysis, AUC of calcium influx (RFU) was measured to plot dose-response curves, which were further analyzed by nonlinear regression analysis. Mean RFU of the first 10 seconds was used as a baseline of the AUC. EC50 values of the dose-response curves were further used to plot Schild curves, and the curves were analyzed with linear regression analysis. For the mice von Frey test, mechanical thresholds were analyzed with two-way ANOVA followed by a Bonferonni test for multiple comparison analysis. For the zebrafish behavior test, the data from the first five seconds following drug administration were excluded, as zebrafish displacement during that period was highly influenced by liquid dispensing. AUC of all curves were measured and analyzed by one-way ANOVA. The post-hoc analysis was conducted with the Tukey’s or Dunnett’s multiple comparisons unless it stated otherwise. A value of y = 0 in the graph was used as a baseline of the AUC. For our time-course average displacement graph, we used 2nd degree polynomial smoothing for a better representation; however, we used data before smoothing for all statistical analysis and quantification. All in vitro and in vivo data were evaluated using GraphPad Prism 7 (GraphPad Software, La Jolla, CA) unless it stated otherwise.

[1] = agonist calcium influx, AUC of RFU, mTRPA1-transfected HEK293
[2] = Schild plot against ASP7663-induced calcium influx, mTRPA1

SMILES	EC50 (mouse TRPA1 (mTRPA1); [1]) [µM]	swimming (locomotor) behavior (5 dpf zebrafish larvae)	persistence of calcium influx (mouse TRPA1 (mTRPA1); 316 µM, up to 120 seconds, compared to AITC)	pEC50 (mouse TRPA1 (mTRPA1); [1])	potency weaker than previously reported (fold) (mouse TRPA1 (mTRPA1); versus similar FLIPR-based calcium assay)	locomotor activity (5 dpf zebrafish larvae; ASP7663 higher concentration 31.6 and 100 μM)	locomotor activity (5 dpf zebrafish larvae; ASP7663 low doses 3.16 and 10 μM)	pA2 (mouse TRPA1 (mTRPA1); [2])	pA2 expressed in µM (mouse TRPA1 (mTRPA1); [2]) [µM]	swimming behavior with antagonist alone (5 dpf zebrafish larvae; 10 μM HC-030031 alone vs E3)	inhibition of ASP7663 (100 μM)-mediated nocifensive locomotor behavior (5 dpf zebrafish larvae; 10 μM antagonist pre-incubation 20 minutes)
C=CCN=C=S [AITC, allyl isothiocyanate]	5.8	elicited an acute and rapid swimming behavior immediately upon treatment									
CC(C)CN1C(=O)/C(=C/C(=O)O)c2cccc(F)c21 [ASP7663]	6.8	induced a slower and more sustained swimming behavior	more persistent calcium influx compared to AITC	5.16 ± 0.16	~ 10 fold	hyperlocomotor activity	induced hypolocomotion				
CC(C)c1ccc(NC(=O)Cn2cnc3c2c(=O)n(C)c(=O)n3C)cc1 [HC-030031]								5.65 ± 0.2	2.2	increased swimming behavior over baseline	inhibited the nocifensive locomotor behavior
